Reference: patent US20250154686A1, “COMPOUND LIBRARY” (CHUGAI SEIYAKU KABUSHIKI KAISHA, priority 2021, published 2025)

Molecular target: T1, Bcl-2 protein (Recombinant Human Bcl-2 Protein) (Homo sapiens, UniProt P10415)
T1 construct: purchased Novus Biologicals NBP2-34889
Test: AS-MS evaluation of binding of the Example 4 mixture library (1200 compounds/well) to Bcl-2, ASMS ratio (%)
Settings: AS-MS, Example 4 mixture library; for ASMS ratio (%) n = 1: Bcl-2, replicate n = 1; for ASMS ratio (%) n = 2: Bcl-2, replicate n = 2
Procedure, shortened: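 A pooled 1200-compound mixture (20 nM each final) was incubated with 20 μM recombinant human Bcl-2 in pH 7.4 Tris-HCl buffer with NaCl, Tween-20 and DTT for 1 h at 23° C. in the dark. Bound ligands were separated by spin-column SEC and measured by reverse-phase LC/MS; ASMS ratio (%) was calculated against protein-free unfiltered standard and protein-free SEC blank.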

T1 sequence (P10415 whole entry): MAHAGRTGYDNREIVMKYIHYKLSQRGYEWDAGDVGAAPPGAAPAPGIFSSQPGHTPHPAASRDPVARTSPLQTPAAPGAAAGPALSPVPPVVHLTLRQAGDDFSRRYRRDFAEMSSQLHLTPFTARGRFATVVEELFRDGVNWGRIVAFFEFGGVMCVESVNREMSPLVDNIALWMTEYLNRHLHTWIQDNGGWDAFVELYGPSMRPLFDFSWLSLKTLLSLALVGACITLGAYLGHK

Structure (SMILES)	ASMS ratio (%) n = 1 [%]	ASMS ratio (%) n = 2 [%]
CCOc1cccc(C#Cc2cncc(C(=O)N3CCN(c4ccc(C(=O)NS(=O)(=O)CCC(F)(F)F)nn4)CC3)c2)c1 [Compound B2N009-01, 6-[4-[5-[2-(3-Ethoxyphenyl)ethynyl]pyridine-3-carbonyl]piperazin-1-yl]-N-(3,3,3-trifluoropropylsulfonyl)pyridazine-3-carboxamide]	0.0	−0.4
CCOc1cncc(C#Cc2cncc(C(=O)N3CCN(c4ccc(C(=O)NS(=O)(=O)CCC(F)(F)F)nn4)CC3)c2)c1 [Compound B2N010-01, 6-[4-[5-[2-(5-Ethoxypyridin-3-yl)ethynyl]pyridine-3-carbonyl]piperazin-1-yl]-N-(3,3,3-trifluoropropylsulfonyl)pyridazine-3-carboxamide]	0.0	0.0
CCOc1cccc(-c2ccccc2CCC(=O)N2CCN(c3ccc(C(=O)NS(=O)(=O)CCC(F)(F)F)nn3)CC2)c1 [Compound B2N011-01, 6-[4-[3-[2-(3-Ethoxyphenyl)phenyl]propanoyl]piperazin-1-yl]-N-(3,3,3-trifluoropropylsulfonyl)pyridazine-3-carboxamide]	0.0	0.0
CCOc1cncc(-c2ccccc2CCC(=O)N2CCN(c3ccc(C(=O)NS(=O)(=O)CCC(F)(F)F)nn3)CC2)c1 [Compound B2N012-01, 6-[4-[3-[2-(5-Ethoxypyridin-3-yl)phenyl]propanoyl]piperazin-1-yl]-N-(3,3,3-trifluoropropylsulfonyl)pyridazine-3-carboxamide]	0.0	0.0
CCOc1cccc(-c2ccc(C(=O)N3CCN(c4ccc(C(=O)NS(=O)(=O)CCC(F)(F)F)nn4)CC3)c3ccccc23)c1 [Compound B2N013-01, 6-[4-[4-(3-Ethoxyphenyl)naphthalene-1-carbonyl]piperazin-1-yl]-N-(3,3,3-trifluoropropylsulfonyl)pyridazine-3-carboxamide]	0.0	0.0
CCOc1cncc(-c2ccc(C(=O)N3CCN(c4ccc(C(=O)NS(=O)(=O)CCC(F)(F)F)nn4)CC3)c3ccccc23)c1 [Compound B2N014-01, 6-[4-[4-(5-Ethoxypyridin-3-yl)naphthalene-1-carbonyl]piperazin-1-yl]-N-(3,3,3-trifluoropropylsulfonyl)pyridazine-3-carboxamide]	0.0	0.0
CCOc1cncc(-c2cc(C(=O)N3CCN(c4ccc(C(=O)NS(=O)(=O)CCC(F)(F)F)nn4)CC3)cc(C(C)(C)C)c2)c1 [Compound B2N016-01, 6-[4-[3-tert-Butyl-5-(5-ethoxypyridin-3-yl)benzoyl]piperazin-1-yl]-N-(3,3,3-trifluoropropylsulfonyl)pyridazine-3-carboxamide]	0.0	0.0
CCOc1cncc(-c2cc(C(=O)N3CCN(c4ccc(C(=O)NS(=O)(=O)CCC(F)(F)F)nn4)CC3)cc(C(F)(F)F)c2)c1 [Compound B2N018-01, 6-[4-[3-(5-Ethoxypyridin-3-yl)-5-(trifluoromethyl)benzoyl]piperazin-1-yl]-N-(3,3,3-trifluoropropylsulfonyl)pyridazine-3-carboxamide]	0.0	1.0
CCOc1cncc(C#Cc2cc(C(=O)N3CCN(c4ccc(C(=O)NS(=O)(=O)CCC(F)(F)F)nn4)CC3)cc(C(F)(F)F)c2)c1 [Compound B2N020-01, 6-[4-[3-[2-(5-Ethoxypyridin-3-yl)ethynyl]-5-(trifluoromethyl)benzoyl]piperazin-1-yl]-N-(3,3,3-trifluoropropylsulfonyl)pyridazine-3-carboxamide]	0.0	0.0
CCOc1cccc(-c2cnn(-c3cc(C(=O)N4CCN(c5ccc(C(=O)NS(=O)(=O)CCC(F)(F)F)nn5)CC4)cc(C(F)(F)F)c3)c2)c1 [Compound B2N021-01, 6-[4-[3-[4-(3-Ethoxyphenyl)pyrazol-1-yl]-5-(trifluoromethyl)benzoyl]piperazin-1-yl]-N-(3,3,3-trifluoropropylsulfonyl)pyridazine-3-carboxamide]		0.0
CCOc1cncc(-c2cnn(-c3cc(C(=O)N4CCN(c5ccc(C(=O)NS(=O)(=O)CCC(F)(F)F)nn5)CC4)cc(C(F)(F)F)c3)c2)c1 [Compound B2N022-01, 6-[4-[3-[4-(5-Ethoxypyridin-3-yl)pyrazol-1-yl]-5-(trifluoromethyl)benzoyl]piperazin-1-yl]-N-(3,3,3-trifluoropropylsulfonyl)pyridazine-3-carboxamide]	0.0	0.0
CCOc1cccc(-c2csc(C(=O)N3CCN(c4ccc(C(=O)NS(=O)(=O)CCC(F)(F)F)cc4)CC3)c2)c1 [Compound B2N023-01, 4-[4-[4-(3-Ethoxyphenyl)thiophene-2-carbonyl]piperazin-1-yl]-N-(3,3,3-trifluoropropylsulfonyl)benzamide]	0.0	0.0
CCOc1cncc(-c2csc(C(=O)N3CCN(c4ccc(C(=O)NS(=O)(=O)CCC(F)(F)F)cc4)CC3)c2)c1 [Compound B2N024-01, 4-[4-[4-(5-Ethoxypyridin-3-yl)thiophene-2-carbonyl]piperazin-1-yl]-N-(3,3,3-trifluoropropylsulfonyl)benzamide]	0.0	0.0
CCOc1cccc(-c2ccc(C(=O)N3CCN(c4ccc(C(=O)NS(=O)(=O)CCC(F)(F)F)cc4)CC3)cc2C)c1 [Compound B2N025-01, 4-[4-[4-(3-Ethoxyphenyl)-3-methylbenzoyl]piperazin-1-yl]-N-(3,3,3-trifluoropropylsulfonyl)benzamide]	0.0	0.0
CCOc1cncc(-c2ccc(C(=O)N3CCN(c4ccc(C(=O)NS(=O)(=O)CCC(F)(F)F)cc4)CC3)cc2C)c1 [Compound B2N026-01, 4-[4-[4-(5-Ethoxypyridin-3-yl)-3-methylbenzoyl]piperazin-1-yl]-N-(3,3,3-trifluoropropylsulfonyl)benzamide]	−1.5	−0.7
CCOc1cncc(-c2ccc(C(=O)N3CCN(c4ccc(C(=O)NS(=O)(=O)CCC(F)(F)F)cc4)CC3)cc2F)c1 [Compound B2N028-01, 4-[4-[4-(5-Ethoxypyridin-3-yl)-3-fluorobenzoyl]piperazin-1-yl]-N-(3,3,3-trifluoropropylsulfonyl)benzamide]	−0.7	−0.9
CCOc1cncc(C#Cc2ccccc2C(=O)N2CCN(c3ccc(C(=O)NS(=O)(=O)CCC(F)(F)F)cc3)CC2)c1 [Compound B2N030-01, 4-[4-[2-[2-(5-Ethoxypyridin-3-yl)ethynyl]benzoyl]piperazin-1-yl]-N-(3,3,3-trifluoropropylsulfonyl)benzamide]	0.0	0.0
